Data published in ChEMBL document CHEMBL5244269, “Improving metabolic stability and removing aldehyde oxidase liability in a 5-azaquinazoline series of IRAK4 inhibitors” (Bioorg Med Chem, 2020).
≈ marks a conversion by molar mass, not a printed value.

How the values were obtained:
OCI-Ly10 [1] = experiment: Growth inhibition of human OCILY10 cells at 1.7 uM incubated for 3 days in presence of 0.017 uM acalabrutinib relative to control; type: functional; details: OCI-Ly10, 72 h, time 3 day, read-out: GI
OCI-Ly10 [2] = experiment: Growth inhibition of human OCILY10 cells at 1.7 uM incubated for 3 days in presence of 0.033 uM acalabrutinib relative to control; type: functional; details: OCI-Ly10, 72 h, time 3 day, read-out: GI
SUD4 [3] = experiment: Growth inhibition of human SU-DHL-4 cells at 0.33 uM incubated for 3 days in presence of 0.17 uM acalabrutinib relative to control; type: functional; details: SU-DHL-4, 72 h, time 3 day, read-out: GI
SUD4 [4] = experiment: Growth inhibition of human SU-DHL-4 cells at 0.33 uM incubated for 3 days in presence of 0.33 uM acalabrutinib relative to control; type: functional; details: SU-DHL-4, 72 h, time 3 day, read-out: GI
SUD4 [5] = experiment: Growth inhibition of human SU-DHL-4 cells at 1.7 uM incubated for 3 days (reference value: -1%); type: functional; details: SU-DHL-4, 72 h, time 3 day, read-out: GI
SUD4 [6] = experiment: Growth inhibition of human SU-DHL-4 cells at 0.17 uM incubated for 3 days (reference value: -1%); type: functional; details: SU-DHL-4, 72 h, time 3 day, read-out: GI
SUD4 [7] = experiment: Growth inhibition of human SU-DHL-4 cells at 0.33 uM incubated for 3 days (reference value: -1%); type: functional; details: SU-DHL-4, 72 h, time 3 day, read-out: GI
OCI-Ly10 [8] = experiment: Growth inhibition of human OCILY10 cells at 0.33 uM incubated for 3 days in presence of 0.033 uM acalabrutinib relative to control; type: functional; details: OCI-Ly10, 72 h, time 3 day, read-out: GI
SUD4 [9] = experiment: Growth inhibition of human SU-DHL-4 cells at 10 uM incubated for 3 days (reference value: -1%); type: functional; details: SU-DHL-4, 72 h, time 3 day, read-out: GI
SUD4 [10] = experiment: Growth inhibition of human SU-DHL-4 cells at 0.33 uM incubated for 3 days in presence of 0.017 uM acalabrutinib relative to control; type: functional; details: SU-DHL-4, 72 h, time 3 day, read-out: GI
SUD4 [11] = experiment: Growth inhibition of human SU-DHL-4 cells at 0.33 uM incubated for 3 days in presence of 0.003 uM acalabrutinib relative to control; type: functional; details: SU-DHL-4, 72 h, time 3 day, read-out: GI
SUD4 [12] = experiment: Growth inhibition of human SU-DHL-4 cells at 0.17 uM incubated for 3 days in presence of 0.017 uM acalabrutinib relative to control; type: functional; details: SU-DHL-4, 72 h, time 3 day, read-out: GI
OCI-Ly10 [13] = experiment: Growth inhibition of human OCILY10 cells at 1.7 uM incubated for 3 days in presence of 0.003 uM acalabrutinib relative to control; type: functional; details: OCI-Ly10, 72 h, time 3 day, read-out: GI
[14] = Lipophilicity, LogD at pH 7.4 of the compound by shake flask method; type: physicochemical; details: buffer
OCI-Ly10 [15] = experiment: Growth inhibition of human OCILY10 cells at 3.3 uM incubated for 3 days (Rvb= -3%); type: functional; details: OCI-Ly10, 72 h, time 3 day, read-out: GI
[16] = biological target: T1, Interleukin-1 receptor-associated kinase 4 (Homo sapiens, UniProt Q9NWZ3); experiment: Inhibition of IRAK4 (unknown origin) phosphorylation by cell based assay
T1 sequence (Q9NWZ3 whole entry): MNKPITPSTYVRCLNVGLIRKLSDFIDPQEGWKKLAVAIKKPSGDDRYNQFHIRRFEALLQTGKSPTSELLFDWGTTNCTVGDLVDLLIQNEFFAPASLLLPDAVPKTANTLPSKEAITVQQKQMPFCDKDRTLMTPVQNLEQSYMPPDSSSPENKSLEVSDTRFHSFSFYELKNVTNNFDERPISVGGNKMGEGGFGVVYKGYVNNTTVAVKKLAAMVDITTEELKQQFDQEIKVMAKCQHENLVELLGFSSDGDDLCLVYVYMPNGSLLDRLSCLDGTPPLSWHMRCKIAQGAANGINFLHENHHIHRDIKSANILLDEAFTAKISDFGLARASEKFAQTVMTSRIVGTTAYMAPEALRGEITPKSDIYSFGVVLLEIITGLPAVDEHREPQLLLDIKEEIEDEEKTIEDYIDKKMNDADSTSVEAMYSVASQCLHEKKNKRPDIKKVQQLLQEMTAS

OCI-Ly10 [17] = experiment: Growth inhibition of human OCILY10 cells at 0.17 uM incubated for 3 days (Rvb= -3%); type: functional; details: OCI-Ly10, 72 h, time 3 day, read-out: GI
[18] = Metabolic stability in human liver microsomes assessed as intrinsic clearance; type: ADME, Microsome; details: read-out: CLH
[19] = biological target: T1, Interleukin-1 receptor-associated kinase 4; experiment: Inhibition of IRAK4 (unknown origin) in presence of ATP by enzymatic assay
OCI-Ly10 [20] = experiment: Growth inhibition of human OCILY10 cells at 1.7 uM incubated for 3 days (Rvb= -3%); type: functional; details: OCI-Ly10, 72 h, time 3 day, read-out: GI
[21] = Aqueous solubility in pH 7.4 phosphate buffer; type: physicochemical
[22] = Metabolic stability in human hepatocytes assessed as intrinsic clearance measured per 10^6 cells; type: ADME, cell-based, Hepatocyte; details: read-out: CLH
[23] = biological target: T2, Receptor-type tyrosine-protein kinase FLT3 (Homo sapiens, UniProt P36888); experiment: Inhibition of FLT3 (unknown origin) in presence of 600 uM ATP
T2 sequence (P36888 whole entry): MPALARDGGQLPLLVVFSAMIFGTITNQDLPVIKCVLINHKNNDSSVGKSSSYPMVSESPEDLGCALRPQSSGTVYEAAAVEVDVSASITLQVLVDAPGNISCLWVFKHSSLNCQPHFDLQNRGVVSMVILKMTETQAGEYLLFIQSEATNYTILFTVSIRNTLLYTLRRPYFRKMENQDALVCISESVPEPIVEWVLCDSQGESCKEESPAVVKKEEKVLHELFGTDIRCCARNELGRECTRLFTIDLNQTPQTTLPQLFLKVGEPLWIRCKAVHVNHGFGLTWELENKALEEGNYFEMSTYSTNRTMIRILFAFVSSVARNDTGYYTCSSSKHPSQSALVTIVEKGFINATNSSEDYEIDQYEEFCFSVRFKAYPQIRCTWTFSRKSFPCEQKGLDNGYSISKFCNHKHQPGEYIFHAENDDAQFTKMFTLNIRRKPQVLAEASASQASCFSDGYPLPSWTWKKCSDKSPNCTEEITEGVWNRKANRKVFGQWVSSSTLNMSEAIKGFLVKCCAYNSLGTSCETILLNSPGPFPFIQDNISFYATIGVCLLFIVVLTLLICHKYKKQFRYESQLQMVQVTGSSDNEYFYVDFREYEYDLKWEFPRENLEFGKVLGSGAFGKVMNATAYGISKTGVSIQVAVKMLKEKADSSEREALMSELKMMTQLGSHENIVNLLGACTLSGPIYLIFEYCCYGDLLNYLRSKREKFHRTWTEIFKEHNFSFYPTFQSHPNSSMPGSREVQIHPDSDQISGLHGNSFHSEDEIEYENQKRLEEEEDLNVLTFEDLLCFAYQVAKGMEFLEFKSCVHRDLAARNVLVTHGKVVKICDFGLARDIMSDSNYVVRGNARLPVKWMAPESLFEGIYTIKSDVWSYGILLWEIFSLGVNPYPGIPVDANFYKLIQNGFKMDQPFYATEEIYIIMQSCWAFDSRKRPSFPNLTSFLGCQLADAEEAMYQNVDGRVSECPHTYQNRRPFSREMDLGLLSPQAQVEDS

[24] = Apparent permeability across apical to basolateral side in human Caco-2 cells measured for 360 mins by liquid scintillation counting based analysis; type: ADME, cell-based
[25] = biological target: Tyrosine-protein kinase BTK (Homo sapiens, UniProt Q06187); experiment: Inhibition of BTK (unknown origin) in presence of 25 uM ATP
[26] = biological target: BDNF/NT-3 growth factors receptor (Homo sapiens, UniProt Q16620); experiment: Inhibition of TRKB (unknown origin) in presence of 25 uM ATP
BDNF/NT-3 growth factors receptor, sequence (Q16620 whole entry): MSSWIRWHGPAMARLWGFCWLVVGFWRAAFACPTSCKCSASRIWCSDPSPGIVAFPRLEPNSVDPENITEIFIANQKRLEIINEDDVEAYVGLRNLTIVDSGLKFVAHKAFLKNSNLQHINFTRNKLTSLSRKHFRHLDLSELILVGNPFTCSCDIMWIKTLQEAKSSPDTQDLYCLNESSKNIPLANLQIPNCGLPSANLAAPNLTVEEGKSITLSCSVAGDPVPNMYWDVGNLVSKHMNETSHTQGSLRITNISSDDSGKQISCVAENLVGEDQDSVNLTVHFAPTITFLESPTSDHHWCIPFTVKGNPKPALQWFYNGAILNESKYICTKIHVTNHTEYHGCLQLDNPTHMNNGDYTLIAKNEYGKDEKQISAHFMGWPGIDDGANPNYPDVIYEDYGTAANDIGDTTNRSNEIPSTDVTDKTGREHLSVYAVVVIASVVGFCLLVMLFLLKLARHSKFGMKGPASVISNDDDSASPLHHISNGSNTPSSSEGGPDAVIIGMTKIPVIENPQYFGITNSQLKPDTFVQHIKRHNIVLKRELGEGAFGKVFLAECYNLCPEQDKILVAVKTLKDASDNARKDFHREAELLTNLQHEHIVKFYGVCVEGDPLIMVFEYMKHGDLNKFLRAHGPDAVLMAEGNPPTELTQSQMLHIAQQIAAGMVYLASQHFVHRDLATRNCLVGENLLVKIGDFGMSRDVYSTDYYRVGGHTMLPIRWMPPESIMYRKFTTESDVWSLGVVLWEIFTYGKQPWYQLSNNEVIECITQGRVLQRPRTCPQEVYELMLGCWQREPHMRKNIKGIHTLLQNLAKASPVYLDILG

Tyrosine-protein kinase BTK, sequence (Q06187 whole entry): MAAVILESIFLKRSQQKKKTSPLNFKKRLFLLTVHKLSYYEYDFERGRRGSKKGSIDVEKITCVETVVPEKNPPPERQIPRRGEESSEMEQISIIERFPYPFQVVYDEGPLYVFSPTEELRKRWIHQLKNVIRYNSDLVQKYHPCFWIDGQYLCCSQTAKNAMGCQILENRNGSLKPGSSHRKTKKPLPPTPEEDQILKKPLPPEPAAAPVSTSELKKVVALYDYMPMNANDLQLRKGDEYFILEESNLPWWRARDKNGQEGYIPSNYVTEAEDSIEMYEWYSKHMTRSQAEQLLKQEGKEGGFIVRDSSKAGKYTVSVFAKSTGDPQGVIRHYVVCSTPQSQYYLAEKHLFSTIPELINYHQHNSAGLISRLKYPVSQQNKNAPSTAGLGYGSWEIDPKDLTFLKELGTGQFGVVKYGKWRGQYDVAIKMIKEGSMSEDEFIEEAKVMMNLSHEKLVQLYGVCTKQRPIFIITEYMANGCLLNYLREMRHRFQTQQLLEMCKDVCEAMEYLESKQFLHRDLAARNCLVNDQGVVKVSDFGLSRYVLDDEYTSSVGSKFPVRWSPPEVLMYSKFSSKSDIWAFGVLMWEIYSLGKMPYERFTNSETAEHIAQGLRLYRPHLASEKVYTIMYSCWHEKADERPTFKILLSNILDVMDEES

SMILES	inhibition of growth at 1.7 µM (OCI-Ly10 [1]) [%]	inhibition of growth at 1.7 µM (OCI-Ly10 [2]) [%]	inhibition of growth at 0.33 µM (SUD4 [3]) [%]	inhibition of growth at 0.33 µM (SUD4 [4]) [%]	inhibition of growth at 1.7 µM (SUD4 [5]) [%]	inhibition of growth at 0.17 µM (SUD4 [6]) [%]	inhibition of growth at 0.33 µM (SUD4 [7]) [%]	inhibition of growth at 0.33 µM (OCI-Ly10 [8]) [%]	inhibition of growth at 10 µM (SUD4 [9]) [%]	inhibition of growth at 0.33 µM (SUD4 [10]) [%]	inhibition of growth at 0.33 µM (SUD4 [11]) [%]	inhibition of growth at 0.17 µM (SUD4 [12]) [%]	inhibition of growth at 1.7 µM (OCI-Ly10 [13]) [%]	logD [14]	inhibition of growth at 3.3 µM (OCI-Ly10 [15]) [%]	IC50 [16] [µM]	inhibition of growth at 0.17 µM (OCI-Ly10 [17]) [%]	microsomal CLint [18] [µL/min/mg]	IC50 [19] [µM]	inhibition of growth at 1.7 µM (OCI-Ly10 [20]) [%]	other results
CC[C@@H]1[C@H](F)C(=O)N[C@@H]1COc1nccc2cc(C(N)=O)c(OC)cc12 [ZIMLOVISERTIB]	89	139	2	6	1	1	1	142	2	1	1	1	26	–	–	–	–	–	–	–	–
Cc1ncc(-c2nc3c(OC4(C)CC4)nc(Nc4cnn(C5CCN(C)CC5)c4)nc3cc2F)cn1	188	193	-2	-1	-2	-2	-1	155	0	1	0	0	93	2.6	76	0.11	1	58	0.003	44	solubility [21]: 800 µM (≈ 392 µg/mL); hepatocyte CLint [22]: < 1 µL/min/1e6 cells; IC50 [23]: > 9 µM; Papp A→B at 6 h [24]: 31 ×10⁻⁶ cm/s; IC50 [25]: > 8 µM; IC50 [26]: 0.76 µM
Cc1ncc(-c2nc3c(NC(C)C)nc(Nc4cnn(C5CC6(C5)CN(C)C6)c4)nc3cc2F)cn1	196	196	4	6	–	–	–	177	–	3	3	3	170	1.9	105	0.21	5	< 3	0.002	75	solubility [21]: > 1000 µM; hepatocyte CLint [22]: < 1 µL/min/1e6 cells; IC50 [23]: 1.5 µM; Papp A→B at 6 h [24]: 7.7 ×10⁻⁶ cm/s; IC50 [25]: > 10 µM; IC50 [26]: 0.93 µM
